We go through 2 molecules from patent publication US8309579B2, “N-hydroxyamide derivatives and use thereof” (Merck Serono SA, priority 2005, dated 2012).

As a reminder, the IC50 is the point on the concentration scale where inhibition reaches its midpoint.

Each structure is given as a SMILES string.

The target in assay [1] is T1, collagenase (MMP-1) (Homo sapiens, UniProt P03956).
T1 sequence (P03956 100-469): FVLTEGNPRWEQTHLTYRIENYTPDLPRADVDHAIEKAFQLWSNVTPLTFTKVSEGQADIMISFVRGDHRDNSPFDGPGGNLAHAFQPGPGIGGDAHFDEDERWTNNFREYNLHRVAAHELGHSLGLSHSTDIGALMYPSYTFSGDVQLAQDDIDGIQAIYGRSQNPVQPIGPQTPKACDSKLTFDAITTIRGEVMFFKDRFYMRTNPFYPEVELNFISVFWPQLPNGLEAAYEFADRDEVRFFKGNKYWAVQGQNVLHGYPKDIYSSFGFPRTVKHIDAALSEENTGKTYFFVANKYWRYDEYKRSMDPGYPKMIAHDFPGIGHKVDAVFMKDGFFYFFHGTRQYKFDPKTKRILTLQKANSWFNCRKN
The experiment in a line: MMP-1 enzyme inhibition assay (coumarin-labelled peptide substrate). The format is biochemical. As to the method: (§1) Stock solutions were made up as follows: Assay Butter: 100 mM Tris-HCl pH 7.6 containing 100 mM NaCl, 10 mM CaCl2, and 0.05% Brij 35.
(§2) Substrate: 0.4 mM McaPLGLDpaAR (from Bachem) (0.437 mg/ml) stock solution in 100% DMSO (stored at −20° C.). Dilute to 8 μM in assay butter.
(§3) Test Compounds were prepared initially as 10 mM compound solution in 100% DMSO, diluted to 1 mM in 100% DMSO, then serially diluted 3-fold in 100% DMSO across columns 1-10 of a 96-well microtitre plate Assay concentration range, 100 μM (column 1) to 5.1 nM (column 10).
(§4) The assay was performed in a total volume of 100 μL per well in 96-well microtitre plates. Activated enzyme (20 μL) was added to the wells followed by 20 μL of assay butter. Appropriate concentrations of test compounds dissolved in 10 μL of DMSO were then added followed by 50 μL of McaPLGLDpaAR (8 μM, prepared by dilution of DMSO stock in assay butter). For each assay ten concentrations of test compound were examined in duplicate. Control wells lack either enzyme or test compound. The reactions were incubated at 37° C. for 2 hours. The fluorescence at 405 nm was measured immediately with an SLT Fluostar fluorometer (SL T Labinstruments GmbH, Grödig, Austria) using 320 nm excitation, without stopping the reaction.
(§5) The effect of the test compound was determined from the dose response curve generated by the 10 duplicate concentrations of inhibitor. […]

For assay [2], the target named is T2, gelatinase A (MMP-2) (Homo sapiens, UniProt P08253).
T2 sequence (P08253 110-660): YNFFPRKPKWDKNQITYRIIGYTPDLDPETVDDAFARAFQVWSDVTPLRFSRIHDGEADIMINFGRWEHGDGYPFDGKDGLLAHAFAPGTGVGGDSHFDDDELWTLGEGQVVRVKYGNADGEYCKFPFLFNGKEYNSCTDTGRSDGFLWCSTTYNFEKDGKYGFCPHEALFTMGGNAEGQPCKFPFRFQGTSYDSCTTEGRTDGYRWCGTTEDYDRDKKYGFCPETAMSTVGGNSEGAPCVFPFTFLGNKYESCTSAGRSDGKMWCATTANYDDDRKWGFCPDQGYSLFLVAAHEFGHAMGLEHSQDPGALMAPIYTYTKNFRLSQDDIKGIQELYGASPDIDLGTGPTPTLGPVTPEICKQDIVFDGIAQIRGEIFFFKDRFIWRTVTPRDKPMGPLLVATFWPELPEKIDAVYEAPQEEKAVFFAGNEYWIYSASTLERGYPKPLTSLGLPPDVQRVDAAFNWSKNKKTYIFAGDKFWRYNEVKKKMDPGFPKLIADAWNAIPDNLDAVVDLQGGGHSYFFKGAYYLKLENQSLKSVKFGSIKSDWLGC
The experiment in a line: MMP-2 enzyme inhibition assay (coumarin-labelled peptide substrate). It counts as biochemical. As to the method: as §1, §2, §3, §4, §5

The target in assay [3] is metalloelastase (MMP-12) (Homo sapiens, UniProt P39900). The assay can be described thus: MMP-12 enzyme inhibition assay (coumarin-labelled peptide substrate). It counts as biochemical. As to the method:
as §1, §2, §3, §4, §5

The test system of assay [4] is IL-2-induced peritoneal recruitment of lymphocytes. The experiment in a line: IL-2-induced peritoneal recruitment of lymphocytes. It counts as in vivo, C3H/HEN mice. The following applies: mice, 3 mg/kg p.o., 15 min prior to IL-2; cells collected 24 h after IL-2. The procedure: Administration of IL-2 intraperitoneally causes migration of lymphocytes into the intraperitoneal cavity. This is a model for the cellular migration that occurs during inflammation.
C3H/HEN mice (Elevage Janvier, France) were intraperitoneally injected with IL-2 (20 μg/kg, in saline).
Compounds of the invention were suspended in 0.5% carboxymethylcellulose (CMC)/0.25% tween-20 and were administered by s.c. or p.o. route (10 ml/kg) 15 min prior to administration of IL-2.
Twenty-four hours after administration of IL-2, peritoneal white blood cells were collected by 3 successive lavages of the peritoneal cavity with 5 ml phosphate buffered saline (PBS)-1 mM EDTA (+4° C.). The suspension was centrifuged (1700 g×10 min at +4° C.). The resulting pellet was suspended in 1 ml PBS-1 mM EDTA.
Lymphocytes were identified and counted using a Beckman/Coulter counter.
The animals were divided into 6 groups (6 mice each group):
Inhibition of lymphocyte recruitment was calculated as follows:
Where Ly 1=Number of lymphocytes in group 1 (E3/μl), Ly 2=Number of lymphocytes in group 2 (E3/μl), Ly X=Number of lymphocytes in group X (3-5) (E3/μl).

Chain of metalloelastase (MMP-12) (P39900 106-470): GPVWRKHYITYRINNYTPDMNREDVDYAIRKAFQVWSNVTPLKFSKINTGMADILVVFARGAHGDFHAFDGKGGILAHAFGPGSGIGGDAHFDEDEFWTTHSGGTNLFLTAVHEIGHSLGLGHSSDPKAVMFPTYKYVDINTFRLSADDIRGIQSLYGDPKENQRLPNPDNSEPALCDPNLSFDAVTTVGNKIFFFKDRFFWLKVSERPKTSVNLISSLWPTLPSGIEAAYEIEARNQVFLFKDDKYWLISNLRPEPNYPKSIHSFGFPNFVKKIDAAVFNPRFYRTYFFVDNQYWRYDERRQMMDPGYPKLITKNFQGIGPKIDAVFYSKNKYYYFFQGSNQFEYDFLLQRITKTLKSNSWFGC

Turning to `CC(C)C[C@@H](CN(O)C=O)C(=O)N1CCN(c2ccc(-c3ccccc3)cc2)CC1` [Example 2, {(2S)-2-[(4-biphenyl-4-ylpiperazin-1-yl)carbonyl]-4-methylpentyl}hydroxyformamide], the half-inhibitory concentration (IC50) was over 5000 nM in assay [1], 9 nM in assay [2] and 8 nM in assay [3].
Turning to `COc1ccc(N2CCN(C(=O)[C@@H](CC(C)C)CN(O)C=O)CC2)cc1` [Example 1, hydroxy((2S)-2-{[4-(4-methoxyphenyl)piperazin-1-yl]carbonyl}-4-methylpentyl)formamide], the IC50 is over 5000 nM in assay [1], 13 nM in assay [2] and 68 nM in assay [3]. In addition, the “% inhibition of IL-2-induced peritoneal recruitment of lymphocytes” value in assay [4] came to 35 ± 10%.
